Measurements: ChEMBL document CHEMBL1201862, “PubChem BioAssay data set” (2004)
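Grown in 96-well plates, cells were treated for 48 hours with each compound at five concentrations. Insufficient inhibition: endpoint recorded as highest concentration tested. GI50 = concentration required for 50% inhibition of growth.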 The source made the active and inactive calls. No stated cut-off is given here; in the data, active = GI50 up to about 1.1 µM and inactive = higher.

Columns and labels:
Test in all cases: NCI anticancer screen, dose series, 48 h
SF-268 = tested on: SF-268
KM12 = tested on: KM12
HOP-92 = tested on: HOP-92
HCT-116 = tested on: HCT-116
SW-620 = tested on: SW-620
SK-MEL-28 = tested on: SK-MEL-28
MOLT-4 = tested on: MOLT-4
OVCAR-8 = tested on: OVCAR-8
NCI-H522 = tested on: NCI-H522
UO-31 = tested on: UO-31
A549 = tested on: A549
M14 = tested on: M14
SNB-19 = tested on: SNB-19
SR = tested on: SR
UACC-257 = tested on: UACC-257
SK-MEL-2 = tested on: SK-MEL-2
SF-539 = tested on: SF-539
NCI-H460 = tested on: NCI-H460
OVCAR-4 = tested on: OVCAR-4
RXF 393 = tested on: RXF 393

Measured: GI50

COc1ccc(/C=C(\C2=NC(=O)CS2)c2nc3ccccc3[nH]2)cc1
inactive: SF-268 > 100 µM | KM12 35.2 µM | HOP-92 80.2 µM | HCT-116 85.1 µM | SW-620 > 100 µM | SK-MEL-28 87.9 µM | MOLT-4 54.8 µM | OVCAR-8 46.8 µM | NCI-H522 16.5 µM | UO-31 32.7 µM | A549 > 100 µM | M14 93.1 µM | SNB-19 > 100 µM | SR > 100 µM | UACC-257 78 µM | SK-MEL-2 24 µM | SF-539 4.6 µM | NCI-H460 38.9 µM | OVCAR-4 > 100 µM | RXF 393 3.13 µM

COC(C(O)c1ccc2c(c1)OCO2)P(=O)(c1ccccc1)c1ccccc1 (configuration not stated)
inactive: SF-268 > 100 µM | KM12 > 100 µM | HOP-92 68.2 µM | HCT-116 > 100 µM | SW-620 > 100 µM | SK-MEL-28 > 100 µM | MOLT-4 > 100 µM | OVCAR-8 62.1 µM | NCI-H522 85.3 µM | UO-31 > 100 µM | M14 > 100 µM | SNB-19 > 100 µM | SR > 100 µM | UACC-257 > 100 µM | SK-MEL-2 > 100 µM | SF-539 > 100 µM | NCI-H460 > 100 µM | OVCAR-4 11.1 µM | RXF 393 81.7 µM

S=c1c2nc[nH]c2ncn1CCSC1=NC=NC2=NC=NC21 (configuration not stated)
inactive: SF-268 > 100 µM | KM12 76.2 µM | HOP-92 > 80 µM | HCT-116 > 100 µM | SW-620 > 100 µM | SK-MEL-28 > 100 µM | MOLT-4 70.5 µM | OVCAR-8 > 100 µM | NCI-H522 > 73.6 µM | UO-31 > 100 µM | A549 > 100 µM | M14 43.8 µM | SNB-19 > 100 µM | SR 50.1 µM | UACC-257 > 81.3 µM | SK-MEL-2 > 100 µM | SF-539 > 84.1 µM | NCI-H460 > 100 µM | OVCAR-4 > 87.3 µM | RXF 393 > 100 µM

COC(CC1(/C=C/O[Si](C(C)C)(C(C)C)C(C)C)C(=O)N(COCC[Si](C)(C)C)c2ccccc21)OC (configuration not stated)
inactive: SF-268 17 µM | KM12 36.1 µM | HOP-92 9.48 µM | HCT-116 16.1 µM | SW-620 37.2 µM | SK-MEL-28 16.6 µM | MOLT-4 22.1 µM | OVCAR-8 > 100 µM | NCI-H522 6.75 µM | UO-31 76 µM | A549 36.3 µM | M14 27.2 µM | SNB-19 33.7 µM | SR 21 µM | UACC-257 25.5 µM | SK-MEL-2 13.3 µM | SF-539 15.1 µM | NCI-H460 23.1 µM | OVCAR-4 20.8 µM | RXF 393 3.9 µM

COC(=O)C1OC2(CCCC3CC32)O[C@H]1C(=O)OC (some centres not stated)
inactive: SF-268 > 100 µM | KM12 > 100 µM | HOP-92 68.7 µM | HCT-116 > 100 µM | SW-620 > 100 µM | SK-MEL-28 > 100 µM | MOLT-4 > 100 µM | OVCAR-8 > 100 µM | NCI-H522 > 100 µM | UO-31 > 100 µM | A549 > 100 µM | M14 > 100 µM | SNB-19 > 100 µM | SR > 100 µM | UACC-257 > 100 µM | SK-MEL-2 > 100 µM | SF-539 > 100 µM | NCI-H460 90.4 µM | OVCAR-4 > 100 µM | RXF 393 > 100 µM

C[C@]12CCC(=O)C=C1CC[C@@H]1[C@@H]2[C@@H](O)C[C@@]2(C)[C@H]1CC[C@]2(O)C(=O)COC(=O)C1CCCC1
inactive: SF-268 > 100 µM | KM12 > 100 µM | HOP-92 > 100 µM | HCT-116 > 100 µM | SW-620 > 100 µM | SK-MEL-28 > 100 µM | OVCAR-8 > 100 µM | NCI-H522 > 100 µM | UO-31 > 100 µM | A549 58.2 µM | M14 > 100 µM | SNB-19 > 100 µM | SR 43.3 µM | UACC-257 > 100 µM | SK-MEL-2 > 100 µM | SF-539 > 100 µM | NCI-H460 87.3 µM | OVCAR-4 > 100 µM | RXF 393 > 100 µM

O=C(Nc1ccn(C2CC(O)C(COC(c3ccccc3)(c3ccccc3)c3ccccc3)O2)c(=O)n1)c1ccccc1 (configuration not stated)
inactive: SF-268 5.06 µM | KM12 4.35 µM | HOP-92 1.57 µM | HCT-116 2 µM | SW-620 2.58 µM | SK-MEL-28 3.08 µM | MOLT-4 2.16 µM | OVCAR-8 1.97 µM | NCI-H522 3.6 µM | UO-31 6.81 µM | A549 4.54 µM | M14 2.3 µM | SNB-19 3.77 µM | SR 2.44 µM | UACC-257 12.7 µM | SK-MEL-2 2.82 µM | SF-539 3.36 µM | NCI-H460 2.03 µM | OVCAR-4 3.24 µM | RXF 393 2.7 µM

CCCCCCCCCCCCOCCOCCOCCOCCOCCOCC(=O)NC(Cc1ccccc1)C(=O)Oc1ccc([N+](=O)[O-])cc1 (configuration not stated)
inactive: SF-268 50.9 µM | KM12 40.1 µM | HOP-92 26.7 µM | HCT-116 31.6 µM | SW-620 36.2 µM | MOLT-4 23.2 µM | OVCAR-8 44.5 µM | NCI-H522 29.9 µM | UO-31 26 µM | A549 43 µM | M14 31.5 µM | SNB-19 47.3 µM | SR 23.3 µM | UACC-257 29.9 µM | SK-MEL-2 23.8 µM | SF-539 36.4 µM | NCI-H460 30.5 µM | OVCAR-4 40.9 µM | RXF 393 31.8 µM

Cc1ccc(/C=C2\Cc3c(C)cc(C)cc3C2=O)c(C(=O)O)c1
inactive: SF-268 40.5 µM | KM12 46.3 µM | HOP-92 36.1 µM | HCT-116 49.4 µM | SW-620 47.4 µM | SK-MEL-28 56.2 µM | MOLT-4 35.5 µM | OVCAR-8 51.8 µM | NCI-H522 78.9 µM | UO-31 50.7 µM | A549 49.9 µM | M14 > 100 µM | SNB-19 44.5 µM | SR 29.4 µM | UACC-257 61.8 µM | SK-MEL-2 24.4 µM | SF-539 15.9 µM | NCI-H460 48.2 µM | OVCAR-4 34.7 µM | RXF 393 39.9 µM

COC1O[C@H]2CCN(C(=O)OCc3ccccc3)[C@H]2[C@H]1OCc1ccccc1 (some centres not stated)
inactive: SF-268 50.2 µM | HOP-92 26.6 µM | HCT-116 46.6 µM | SW-620 50.2 µM | SK-MEL-28 41.2 µM | MOLT-4 36 µM | OVCAR-8 69.7 µM | NCI-H522 37.6 µM | UO-31 29.2 µM | A549 4.33 µM | M14 46.3 µM | SNB-19 89.3 µM | SR 30.3 µM | UACC-257 43.8 µM | SK-MEL-2 29.8 µM | SF-539 > 100 µM | NCI-H460 44.3 µM | OVCAR-4 > 62.4 µM | RXF 393 50 µM

C=C1CC[C@](C)(O)[C@@]2(C)CC[C@H]3C(=C(C)C)C(=O)C[C@]3(C)C[C@H]12
inactive: SF-268 > 50 µM | KM12 21 µM | HOP-92 > 50 µM | HCT-116 14.8 µM | SW-620 21.6 µM | SK-MEL-28 43.7 µM | MOLT-4 10.9 µM | OVCAR-8 > 50 µM | NCI-H522 14.3 µM | UO-31 20 µM | A549 42.6 µM | M14 37.5 µM | SNB-19 > 50 µM | SR 13.4 µM | UACC-257 > 50 µM | SK-MEL-2 > 50 µM | SF-539 > 50 µM | OVCAR-4 > 50 µM | RXF 393 18.2 µM

COC(=O)C#CCC1CCCC1C1SCCS1 (configuration not stated)
inactive: SF-268 > 100 µM | KM12 36.7 µM | HOP-92 > 100 µM | HCT-116 > 100 µM | SW-620 > 100 µM | SK-MEL-28 > 100 µM | MOLT-4 21.2 µM | OVCAR-8 61.1 µM | NCI-H522 28 µM | UO-31 > 100 µM | A549 > 100 µM | M14 > 100 µM | SNB-19 91.4 µM | SR 15.8 µM | UACC-257 51.3 µM | SK-MEL-2 26.2 µM | SF-539 99.1 µM | OVCAR-4 71.4 µM | RXF 393 > 100 µM

Fc1cccc(C2ON=C(c3ccccc3)N2C23CC4CC(CC(C4)C2)C3)c1 (configuration not stated)
inactive: SF-268 > 10 µM | KM12 > 10 µM | HOP-92 > 10 µM | HCT-116 > 10 µM | SW-620 > 10 µM | SK-MEL-28 > 10 µM | MOLT-4 > 10 µM | OVCAR-8 > 10 µM | NCI-H522 > 10 µM | A549 > 10 µM | M14 > 10 µM | SNB-19 > 10 µM | SR 8.97 µM | UACC-257 > 10 µM | SK-MEL-2 > 10 µM | SF-539 > 10 µM | NCI-H460 > 10 µM | OVCAR-4 > 10 µM | RXF 393 > 10 µM

O=C1O/C(=C\c2ccc(O)cc2)C(c2ccc(O)c(Cl)c2)=C1Br
inactive: SF-268 13.7 µM | KM12 12.4 µM | HOP-92 12.9 µM | HCT-116 11.5 µM | SW-620 15.9 µM | SK-MEL-28 13.4 µM | MOLT-4 11.7 µM | OVCAR-8 17.6 µM | NCI-H522 6.76 µM | UO-31 14.6 µM | M14 13.6 µM | SNB-19 15.7 µM | SR 3.94 µM | UACC-257 13.9 µM | SK-MEL-2 14 µM | SF-539 12 µM | NCI-H460 12.8 µM | OVCAR-4 11.4 µM | RXF 393 18.6 µM
